For one experiment, the target named is EGFR (ErbB1) L858R/T790M (Homo sapiens (Human), UniProt P00533, L858R/T790M). Description: Z'-LYTE kinase inhibition assay against EGFR L858R/T790M. Format: biochemical. The conditions noted are these: compound at 100 nM; ATP concentration at Km. The method, then:
(§1) Inhibitory activities of compounds against BTK, EGFR T790M, EGFR L858R, and EGFR L858R/T790M were measured using Z′-LYTE® Method from Life Technologies as briefly described in the following.
(§2) Test Compounds are screened in 1% DMSO (final) in the well. For 10 point titrations, 3-fold serial dilutions are conducted from the starting concentration. All ATP Solutions are diluted to a 4× working concentration in Kinase Buffer (50 mM HEPES pH 7.5, 0.01% BRIJ-35, 10 mM MgCl2, 1 mM EGTA). Peptide/Kinase Mixtures are diluted to a 2× working concentration in the appropriate Kinase Buffers as described below. • (i) Peptide/Kinase Mixtures for measurement of EGFR (ErbB1) L858R: • The 2×EGFR (ErbB1) L858R/Tyr 04 mixture is prepared in 50 mM HEPES pH 7.5, 0.01% BRIJ-35, 10 mM MgCl2, 4 mM MnCl2. 1 mM EGTA, 2 mM DTT. The final 10 μL Kinase Reaction consists of 0.2-1.68 ng EGFR (ErbB1) L858R and 2 μM Tyr 04 in 50 mM HEPES pH 7.5, 0.01% BRIJ-35, 10 mM MgCl2, 2 mM MnCl2, 1 mM EGTA, 1 mM DTT. After the 1 hour Kinase Reaction incubation, 5 μL of a 1:64 dilution of Development Reagent B is added. • (ii) Peptide/Kinase Mixtures for measurement of EGFR (ErbB1) T790M: The 2×EGFR (ErbB1) T790M/Tyr 04 mixture is prepared in 50 mM HEPES pH 6.5, 0.01% BRIJ-35, 10 mM MgCl2, 1 mM EGTA, 0.02% NaN3. The final 10 μL Kinase Reaction consists of 3.9-30.2 ng EGFR (ErbB1) T790M and 2 μM Tyr 04 in 50 mM HEPES pH 7.0, 0.01% BRIJ-35, 10 mM MgCl2, 1 mM EGTA, 0.01% NaN3. After the 1 hour Kinase Reaction incubation, 5 μL of a 1:64 dilution of Development Reagent B is added. • (iii) Peptide/Kinase Mixtures for measurement of EGFR (ErbB1) L858R/T790M: The 2×EGFR (ErbB1) T790M L858R/Tyr 04 mixture is prepared in 50 mM HEPES pH 6.5, 0.01% BRIJ-35, 10 mM MgCl2, 1 mM EGTA, 0.02% NaN3. The final 10 μL Kinase Reaction consists of 0.38-4.22 ng EGFR (ErbB1) T790M L858R and 2 μM Tyr 04 in 50 mM HEPES pH 7.0, 0.01% BRIJ-35, 10 mM MgCl2, 1 mM EGTA, 0.01% NaN3. After the 1 hour Kinase Reaction incubation, 5 μL of a 1:64 dilution of Development Reagent B is added. • (iv) Peptide/Kinase Mixtures for measurement of BTK: The 2×BTK/Tyr 01 mixture is prepared in 50 mM HEPES pH 7.5, 0.010/BRIJ-35, 10 mM MgCl2, 1 mM EGTA. The final 10 μL Kinase Reaction consists of 1.04-10.4 ng BTK and 2 μM Tyr 01 in 50 mM HEPES pH 7.5, 0.01% BRIJ-35, 10 mM MgCl2, 1 mM EGTA. After the 1 hour Kinase Reaction incubation, 5 μL of a 1:256 dilution of Development Reagent B is added.
(§3) Reaction starts by 30-second shaking of mixture consisting of 2.5 μL 4× test compound, 5 μL 2× kinase reaction mixture and 2.5 μL 4×ATP Solution on Bar-coded Corning, low volume NBS, black 384-well plate (Corning Cat. #3676). Then the mixture is incubated for 60-minute at room temperature for the kinase reaction, followed by addition of 5 μL of a 1:1024 dilution of development reagent A and 30-second plate shake. The mixture is then incubated for another 60-minute at room temperature for development reaction. Finally fluorescence is read by plate reader.
(§4) The Z′-LYTE assay was carried out with ATP concentration at Km. The scale utilized in Tables 2-6 is as follows: ++ more than 50% inhibition and + less than 50% inhibition.

Another experiment addresses EGFR (ErbB1) L858R (Homo sapiens (Human), UniProt P00533, L858R). Description: Z'-LYTE kinase inhibition assay against EGFR L858R. Format: biochemical. The conditions noted are these: compound at 100 nM; ATP concentration at Km. As to the method:
as §1, §2, §3, §4

The target in another experiment is EGFR (ErbB1) T790M (Homo sapiens (Human), UniProt P00533, T790M). Description: Z'-LYTE kinase inhibition assay against EGFR T790M. The format is biochemical. The conditions noted are these: compound at 100 nM; ATP concentration at Km. The method, then: as §1, §2, §3, §4
The target in the next experiment is BTK (Homo sapiens (Human), UniProt Q06187). Description: Z'-LYTE kinase inhibition assay against BTK. Format: biochemical. The conditions noted are these: for inhibition at 0.1 µM: compound at 100 nM, ATP concentration at Km; for pIC50: series of concentrations, GraphPad Prism 5. Put shortly: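 Z′-LYTE FRET readout: 1.04-10.4 ng BTK with 2 μM Tyr 01 peptide, ATP at Km, in 50 mM HEPES pH 7.5, 10 mM MgCl2, 1 mM EGTA, 0.01% BRIJ-35, 1% DMSO. 60 min kinase reaction at room temperature, then 60 min development; IC50 from 10-point, 3-fold titrations.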

The target in a further experiment is EGFR del746_750 (Homo sapiens (Human), UniProt P00533, DEL746-750). The experiment is described as follows: SelectScreen Lantha method (Eu-anti-GST antibody/tracer) for EGFR del746_750. The format is binding. The conditions noted are these: compound at 100 nM; read-out: % Inhibition against EGFR del745_750. As to the method:
SelecteScreen's Lantha® method from Life Technologies was used to measure compound's activities in inhibition of EGFR del746_750.
Test Compounds are screened in 1% DMSO (final) in the well. For 10 point titrations, 3-fold serial dilutions are conducted from the starting concentration. • Components for EGFR del745_750: • Kinase Buffer A: 50 mM HEPES pH 7.5, 0.01% BRIJ-35, 10 mM MgCl2, 1 mM EGTA • Kinase/Antibody Mixtures for EGFR del745_ 750: EGFR del745_ 750 10 nM, Antibody: Eu-anti-GST 2 nM, Tracer 199 10 nM, Inhibitor: SB202190 88.2 nM, All Kinase/Antibody Mixtures are diluted to a 2× working concentration in the appropriate Kinase Buffer • Tracer: The 4× AlexaFluor® labeled Tracer is prepared in Kinase Buffer.
To start the measurement, the following components are added to individual wells of bar-coded, low volume, white 384-well plate (Greiner Cat. #784207): • 1. 160 nL—100× Test Compound in 100% DMSO. • 2. 3.84 μL—Kinase Buffer: • 3. 8.0 μL—2× Kinase/Antibody Mixture • 4. 4.0 μL—4× Tracer The mixture above is then shaken for 30-second following by 60-minute incubation at room temperature. Finally the plate is read on fluorescence plate reader.
as §4

The next experiment relates to OCI-Ly10 cells. The experiment is described as follows: OCI-Ly10 cell proliferation assay (Alamar Blue, 72 hours). The conditions noted are these: Homo sapiens. Format: cell-based. The method, then:
OCI-Ly10 cells were cultured in Iscove's DMEM supplemented with 20% fetal bovine serum and 1× penicillin/streptomycin/glutamine. The cells were maintained in T175 flasks under 5% CO2 in a 37 ° C. humidified incubator for 5 days prior to plating and assay.
Cells were pooled by centrifugation (200 ref, 8 minutes) and resuspended in fresh medium to a concentration of 2.00E+05 cells/ml. 200 µl of the cell suspension was added to each well (40,000 cells/well) of a black-walled 96 well plate to which 1 μl of compound (n=3 per concentration) in 100% DMSO (0.5% final concentration) was added per well. Vehicle and cell free wells were also included in the assay. The dosed cells were cultured under normal conditions for 72 hours.
Cell proliferation is measured using the dye Alamar Blue (resazurin). Resazurin is reduced to resorufin by cellular enzymes and is fluorescent (544 nm excitation, 612 nm emission). Fluorescence intensity is proportional to cell number. Resazurin was prepared in PBS to a stock concentration of 440 μM. 40 μl of the 440 μM resazurin stock solution was added 3 hours prior to the 72 hour termination of the assay. The plate was returned to normal culture conditions and fluorescence measurements were collected using a Cytation3 multimode plate reader (Biotek) at 72 hours.
The scale utilized in Table 8 is as follows: ++ less than 50 nM and + greater than 50 nM.
A general note: Alamar Blue is a resazurin reagent that responds to reducing activity.

This is an account of results in patent US10544106B2, “Certain chemical entities, compositions, and methods” (NeuPharma, Inc., priority 2016, dated 2020).

A word on the inhibition: it is the drop in the measured response relative to a control, in per cent. For orientation: pIC50 means the IC50 on a negative log10 scale, so that one unit is a factor of ten.

pIC50: −log10 of the molar value.

EGFR del746_750, sequence (P00533 other isoform, or with tags, fused parts or gaps del E746-A750): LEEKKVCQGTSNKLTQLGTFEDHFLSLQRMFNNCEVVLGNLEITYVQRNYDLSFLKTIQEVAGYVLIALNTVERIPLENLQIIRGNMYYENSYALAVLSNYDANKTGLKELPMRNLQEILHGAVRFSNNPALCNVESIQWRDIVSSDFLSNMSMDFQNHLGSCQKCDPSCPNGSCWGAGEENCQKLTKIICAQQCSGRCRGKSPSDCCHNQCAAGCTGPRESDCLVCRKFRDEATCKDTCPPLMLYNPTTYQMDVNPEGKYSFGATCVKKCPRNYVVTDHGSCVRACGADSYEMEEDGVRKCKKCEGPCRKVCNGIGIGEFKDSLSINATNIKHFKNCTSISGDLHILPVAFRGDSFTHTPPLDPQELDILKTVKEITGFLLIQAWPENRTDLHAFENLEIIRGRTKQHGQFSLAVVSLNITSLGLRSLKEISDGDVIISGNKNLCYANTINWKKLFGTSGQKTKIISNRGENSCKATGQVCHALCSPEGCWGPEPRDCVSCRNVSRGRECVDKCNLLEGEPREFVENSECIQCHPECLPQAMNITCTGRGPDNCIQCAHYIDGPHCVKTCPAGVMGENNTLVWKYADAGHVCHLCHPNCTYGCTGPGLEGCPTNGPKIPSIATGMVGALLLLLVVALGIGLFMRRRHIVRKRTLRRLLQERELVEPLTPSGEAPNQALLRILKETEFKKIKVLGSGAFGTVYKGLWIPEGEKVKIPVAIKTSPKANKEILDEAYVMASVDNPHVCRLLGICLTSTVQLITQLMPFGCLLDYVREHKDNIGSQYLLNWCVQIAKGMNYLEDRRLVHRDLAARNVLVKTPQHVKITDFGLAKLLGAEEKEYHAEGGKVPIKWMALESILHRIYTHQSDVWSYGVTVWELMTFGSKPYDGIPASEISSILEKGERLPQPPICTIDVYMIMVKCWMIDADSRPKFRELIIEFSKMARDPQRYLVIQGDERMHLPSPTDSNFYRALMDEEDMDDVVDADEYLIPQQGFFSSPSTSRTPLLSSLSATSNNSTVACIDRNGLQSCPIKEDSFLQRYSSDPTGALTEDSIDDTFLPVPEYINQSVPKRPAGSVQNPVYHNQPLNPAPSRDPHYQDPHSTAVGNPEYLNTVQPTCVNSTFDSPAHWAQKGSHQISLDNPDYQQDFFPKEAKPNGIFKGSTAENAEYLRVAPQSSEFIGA
EGFR (ErbB1) L858R/T790M, sequence (P00533 25-1210 T790M/L858R): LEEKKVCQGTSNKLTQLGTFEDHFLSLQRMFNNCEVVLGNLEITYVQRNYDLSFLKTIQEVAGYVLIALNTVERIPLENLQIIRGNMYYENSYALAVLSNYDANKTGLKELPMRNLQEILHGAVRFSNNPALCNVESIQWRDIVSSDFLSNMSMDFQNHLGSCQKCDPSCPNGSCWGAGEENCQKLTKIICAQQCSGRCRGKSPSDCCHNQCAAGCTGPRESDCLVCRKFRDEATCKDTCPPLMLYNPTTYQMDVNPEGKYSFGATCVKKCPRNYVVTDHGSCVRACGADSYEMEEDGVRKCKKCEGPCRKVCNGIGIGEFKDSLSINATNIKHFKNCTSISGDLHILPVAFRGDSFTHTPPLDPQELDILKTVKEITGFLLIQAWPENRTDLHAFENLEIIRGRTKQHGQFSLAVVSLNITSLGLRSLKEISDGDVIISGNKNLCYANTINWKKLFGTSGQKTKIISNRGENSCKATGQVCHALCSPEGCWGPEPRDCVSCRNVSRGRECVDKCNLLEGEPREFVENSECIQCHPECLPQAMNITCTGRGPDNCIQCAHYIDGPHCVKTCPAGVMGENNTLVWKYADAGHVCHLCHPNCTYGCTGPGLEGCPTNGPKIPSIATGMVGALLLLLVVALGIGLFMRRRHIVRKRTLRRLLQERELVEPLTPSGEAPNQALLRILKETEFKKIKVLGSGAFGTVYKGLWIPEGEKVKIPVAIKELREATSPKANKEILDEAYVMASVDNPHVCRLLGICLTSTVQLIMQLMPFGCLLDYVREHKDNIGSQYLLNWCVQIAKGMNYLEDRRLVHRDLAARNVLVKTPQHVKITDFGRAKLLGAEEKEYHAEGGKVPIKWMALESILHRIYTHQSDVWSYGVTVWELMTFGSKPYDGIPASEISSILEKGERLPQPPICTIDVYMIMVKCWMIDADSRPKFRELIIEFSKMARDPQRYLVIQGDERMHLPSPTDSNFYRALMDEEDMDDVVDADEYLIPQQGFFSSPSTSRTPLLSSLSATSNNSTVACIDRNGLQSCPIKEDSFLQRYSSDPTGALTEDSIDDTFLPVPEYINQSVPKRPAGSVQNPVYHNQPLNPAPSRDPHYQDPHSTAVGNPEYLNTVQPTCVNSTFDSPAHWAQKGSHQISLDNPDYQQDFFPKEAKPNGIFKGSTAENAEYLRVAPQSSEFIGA
BTK, sequence (Q06187 whole entry): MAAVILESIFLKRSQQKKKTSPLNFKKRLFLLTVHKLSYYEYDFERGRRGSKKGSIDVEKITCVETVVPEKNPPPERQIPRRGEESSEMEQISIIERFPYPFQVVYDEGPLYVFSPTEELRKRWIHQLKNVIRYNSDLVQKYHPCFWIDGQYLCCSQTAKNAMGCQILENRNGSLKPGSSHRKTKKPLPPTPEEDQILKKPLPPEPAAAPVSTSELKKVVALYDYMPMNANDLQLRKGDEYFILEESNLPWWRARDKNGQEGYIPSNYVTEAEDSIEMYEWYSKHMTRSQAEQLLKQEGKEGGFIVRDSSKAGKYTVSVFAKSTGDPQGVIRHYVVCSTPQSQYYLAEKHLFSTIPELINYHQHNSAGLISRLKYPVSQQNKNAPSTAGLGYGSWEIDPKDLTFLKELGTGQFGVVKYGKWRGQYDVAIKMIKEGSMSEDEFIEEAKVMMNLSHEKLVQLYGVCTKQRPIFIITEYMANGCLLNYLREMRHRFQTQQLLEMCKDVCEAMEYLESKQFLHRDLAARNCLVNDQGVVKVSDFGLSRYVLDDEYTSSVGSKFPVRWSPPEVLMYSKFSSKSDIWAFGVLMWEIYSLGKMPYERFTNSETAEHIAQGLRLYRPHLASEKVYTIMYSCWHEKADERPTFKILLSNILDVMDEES
EGFR (ErbB1) T790M, sequence (P00533 25-1210 T790M): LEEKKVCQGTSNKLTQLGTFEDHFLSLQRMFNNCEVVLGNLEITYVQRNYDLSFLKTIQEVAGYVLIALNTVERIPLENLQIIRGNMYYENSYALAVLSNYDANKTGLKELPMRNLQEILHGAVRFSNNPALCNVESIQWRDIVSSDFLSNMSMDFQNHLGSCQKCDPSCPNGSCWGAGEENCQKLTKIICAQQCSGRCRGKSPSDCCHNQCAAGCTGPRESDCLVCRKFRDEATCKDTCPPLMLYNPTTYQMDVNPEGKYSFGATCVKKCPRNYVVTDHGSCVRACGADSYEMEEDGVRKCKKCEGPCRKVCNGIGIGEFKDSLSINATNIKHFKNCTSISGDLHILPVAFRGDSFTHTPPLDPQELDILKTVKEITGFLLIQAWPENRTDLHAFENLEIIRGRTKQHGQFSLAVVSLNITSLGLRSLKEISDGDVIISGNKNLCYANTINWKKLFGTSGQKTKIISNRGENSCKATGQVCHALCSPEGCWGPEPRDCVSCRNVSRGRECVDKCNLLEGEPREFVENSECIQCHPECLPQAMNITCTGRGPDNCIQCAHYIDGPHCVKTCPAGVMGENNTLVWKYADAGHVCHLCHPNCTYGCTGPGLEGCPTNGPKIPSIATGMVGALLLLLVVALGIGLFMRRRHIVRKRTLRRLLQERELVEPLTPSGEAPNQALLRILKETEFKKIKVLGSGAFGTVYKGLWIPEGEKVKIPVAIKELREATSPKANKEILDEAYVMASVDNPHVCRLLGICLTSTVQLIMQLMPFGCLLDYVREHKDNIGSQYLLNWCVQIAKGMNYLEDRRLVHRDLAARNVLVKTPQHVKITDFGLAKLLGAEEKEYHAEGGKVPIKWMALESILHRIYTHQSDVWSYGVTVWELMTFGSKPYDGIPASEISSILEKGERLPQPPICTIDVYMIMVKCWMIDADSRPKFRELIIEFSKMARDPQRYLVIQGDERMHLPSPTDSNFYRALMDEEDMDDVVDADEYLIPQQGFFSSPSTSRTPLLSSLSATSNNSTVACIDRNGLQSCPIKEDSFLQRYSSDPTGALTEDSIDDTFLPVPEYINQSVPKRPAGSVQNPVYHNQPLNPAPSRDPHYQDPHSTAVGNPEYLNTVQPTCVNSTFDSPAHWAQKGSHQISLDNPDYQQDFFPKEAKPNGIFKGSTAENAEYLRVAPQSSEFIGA

With `C=CC(=O)Nc1cccc(-c2cc(-c3ccccc3Cl)cc3cnc(N)nc23)c1` [C003, N-(3-(2-amino-6-(2-chlorophenyl)quinazolin-8-yl)phenyl)acrylamide], the inhibition at 0.1 µM against EGFR (ErbB1) L858R/T790M is under 50%; against EGFR (ErbB1) L858R, over 50%; against EGFR (ErbB1) T790M it was under 50%; at BTK, over 50%; at EGFR del746_750, over 50%. The compound also showed a pIC50 against BTK of over 7.00.
For the compound `C=CC(=O)Nc1cccc(-c2cc(-c3ccc(C(=O)Nc4ccccn4)cc3)cc3cncnc23)c1` [C008, 4-(8-(3-acrylamidophenyl)quinazolin-6-yl)-N-(pyridin-2-yl)benzamide], the inhibition at 0.1 µM is under 50% on EGFR (ErbB1) L858R/T790M; under 50% at EGFR (ErbB1) L858R; under 50% against EGFR (ErbB1) T790M; over 50% against BTK; under 50% on EGFR del746_750. Besides, the pIC50 with OCI-Ly10 cells is over 7.30; on BTK, over 7.00.
Turning to `C=CC(=O)Nc1cccc(-c2cc(-c3ccccc3Cl)cc3cncnc23)c1` [C013, N-(3-(6-(2-chlorophenyl)quinazolin-8-yl)phenyl)acrylamide], the inhibition at 0.1 µM on EGFR (ErbB1) L858R/T790M is under 50%; against EGFR (ErbB1) L858R, over 50%; against EGFR (ErbB1) T790M, under 50%; on BTK it was over 50%; at EGFR del746_750 it was over 50%. Also, at BTK, the pIC50 is over 7.00.
Turning to `C=CC(=O)N1CCCC(c2cc(-c3ccc(C)nc3)cc3cnc(N)nc23)C1` (centres unmarked) [C042, 1-(3-(2-amino-6-(6-methylpyridin-3-yl)quinazolin-8-yl)piperidin-1-yl)prop-2-en-1-one], the inhibition at 0.1 µM at EGFR (ErbB1) L858R/T790M, against EGFR (ErbB1) L858R, at EGFR (ErbB1) T790M, against BTK and at EGFR del746_750 was under 50% throughout.
For the compound `C=CC(=O)Nc1cccc(-c2cc(-c3ccc(C(=O)Nc4cccc(C(F)(F)F)c4)cc3)cc3cncnc23)c1` [C051, 4-(8-(3-acrylamidophenyl)quinazolin-6-yl)-N-(3-(trifluoromethyl)phenyl)benzamide], the inhibition at 0.1 µM on EGFR (ErbB1) L858R/T790M, on EGFR (ErbB1) L858R, on EGFR (ErbB1) T790M, at BTK and at EGFR del746_750 was over 50% each time. On BTK, this compound gave a pIC50 of over 7.00.
As to `C=CC(=O)N1CCC(c2cc(-c3ccc(C(=O)Nc4cc(Cl)ccn4)cc3)n3cnccc23)C1` (centres unmarked) [C064, 4-(5-(1-acryloylpyrrolidin-3-yl)pyrrolo[1,2-c]pyrimidin-7-yl)-N-(4-chloropyridin-2-yl)benzamide], the inhibition at 0.1 µM against EGFR (ErbB1) L858R/T790M is under 50%; against EGFR (ErbB1) L858R it was under 50%; against EGFR (ErbB1) T790M it was under 50%; against BTK it was over 50%. For the same compound, the pIC50 on BTK was over 7.00.
With `C=CC(=O)Nc1cccc(-c2cc(-c3cccc(F)c3)cc3cncnc23)c1` [C073, N-(3-(6-(3-fluorophenyl)quinazolin-8-yl)phenyl)acrylamide], the inhibition at 0.1 µM at EGFR (ErbB1) L858R/T790M is under 50%; against EGFR (ErbB1) L858R, over 50%; against EGFR (ErbB1) T790M, under 50%; at BTK, over 50%; on EGFR del746_750 it was over 50%. On BTK, this compound showed a negative logarithm of the IC50 (pIC50) of over 7.00.
As to `C=CC(=O)Nc1cccc(-c2cc(-c3ccccc3)cc3cnc(Nc4ccccc4)nc23)c1` [C074, N-(3-(6-phenyl-2-(phenylamino)quinazolin-8-yl)phenyl)acrylamide], the inhibition at 0.1 µM on EGFR (ErbB1) L858R/T790M was under 50%; against EGFR (ErbB1) L858R it was over 50%; against EGFR (ErbB1) T790M, under 50%; against BTK, over 50%; on EGFR del746_750 it was over 50%. Besides, the pIC50 against BTK is over 7.00.
For `C=CC(=O)Nc1cccc(-c2cc(-c3cccnc3)cc3cnc(Nc4ccccc4)nc23)c1` [C076, N-(3-(2-(phenylamino)-6-(pyridin-3-yl)quinazolin-8-yl)phenyl)acrylamide], the inhibition at 0.1 µM at EGFR (ErbB1) L858R/T790M is under 50%; against EGFR (ErbB1) L858R it was over 50%; against EGFR (ErbB1) T790M, under 50%; at BTK it was over 50%; at EGFR del746_750, over 50%. The same compound had a pIC50 at BTK of over 7.00.
